According to patent US9963518B2, “Cyclic oligosaccharides for use in the treatment and prevention of bacterial infection” (priority 2011, dated 2018):
Like-named read-outs stand apart in the source and are kept apart here.

Key:
E. coli strain E69 = test: LPS exposure assay, O9a LPS to O9a LPS-specific antibodies (FACS); format: cell-based
Method: The direct effect of the inhibition of K30 CPS transport on E. coli strain E69 is the appearance of defects in the capsule layer. This should in turn lead to exposure of O9a LPS at the cell surface. To test this hypothesis, the attachment of rabbit anti-O9a antibodies was quantified by flow cytometry (FACS), by using secondary fluorescent anti-rabbit antibodies. The design of the experiment is depicted schematically in FIG. 4a.
E. coli strains E69 and CWG281 were grown as described above in Example 4 and the OD600 was adjusted to 0.4. The concentrations of cyclodextrin (either am8γCD (compound 13), am6αCD (compound 3) or am7βCD (compound 10)) present in the growth media were 10 nM, 100 nM, 1 μM, 10 μM, 50 μM, 100 μM and 1 mM. 50 μL samples of each were centrifuged at 3,000×g for 10 min to remove the medium, washed with PBS and resuspended in 50 μL PBS. O9a antiserum (0.5 μL) was then added. The mixtures were incubated on ice for 1 h (to compare the effects of am6αCD, am7βCD and am8γCD on the exposure of LPS) or 2 h (for the estimation of minimum effective concentration of am8γCD required to expose LPS to antibodies), followed by centrifugation at 3,000×g for 10 min and washing with PBS. The pellets were resuspended in PBS (50 μL), to which Alexa Fluor 488 Goat Anti-Rabbit IgG secondary antibody (1 μL, Life Technologies, A11034, λex 495 nm, λem 519 nm) was added, followed by incubation for 1 h on ice. The cells were then centrifuged at 3,000×g for 10 min. The pellets were resuspended in PBS (1 mL), followed by analysis by flow cytometry (FACS) using a Becton-Dickinson FACSCalibur. 10,000 cells were analysed for each sample. Fluorescence was measured in the FL1 channel (530 nm).

mutant Wza Y110G = mutant Wza Y110G (Escherichia coli, UniProt Q9X4B7, Y110G); test: Single-channel electrical recording, mutant Wza Y110G; format: binding, E. coli; settings: n = 3, read-out: Dissociation constant (Kd) with mutant Wza pore
Method: Thirteen commercial cyclodextrins (CDs) were tested for their ability to block WT-Wza and the mutant Y110G/K375C (Table 1) including, neutral, negatively charged or positively charged cyclodextrins. […]

mutant Wza Y110G/Y373C = mutant Wza Y110G/Y373C (Escherichia coli, UniProt Q9X4B7, Y110G/Y373C); test: Single-channel electrical recording, mutant Wza Y110G/Y373C; format: binding, E. coli; settings: 2M KCl buffer pH 7.5, +3 mV, n = 3, read-out: Dissociation constant (Kd) with mutant Wza pore
[1] = system: K30 polysaccharide transport through Wza; test: Inhibition of K30 polysaccharide transport through Wza, phenol extraction and carbohydrate staining; format: cell-based, E. coli strain E69
Method: The inhibitory effect of am8γCD, am7βCD and am6αCD were tested on live bacteria (E. coli strain E69) with K30 capsular polysaccharide (CPS) and Wza as its transporter. Isolation and staining of the polysaccharides was used. Phenol extraction was carried out in accordance with Orskov (Eur. J. Biochem.; 1980, Stirm, J. Bacteriol. 1967) to isolate the capsular polysaccharide (CPS) and lipopolysaccharide (LPS), followed by carbohydrate staining Pro-Q Emerald 300 glycoprotein stain kit (Molecular Probes) was used for staining of both the CPS and LPS. The staining time, loading volume, oxidation time and washing time after staining were optimised and the following conditions used in the assay:
Loading volume: 3 μL of the stock aqueous polysaccharide solution (see below), mixed with 3 μL of the Laemmli sample buffer (1 mL, Bio-Rad) mixed with 2-mercaptoethanol (950 microliter:50 microliter) before use;
Oxidation time: 30 minutes
Further details of the microbiology and the staining procedures used are as follows: The strains were grown in the absence of or the presence of various concentrations of am8γCD overnight in M9 minimal medium until OD reached ˜0.5. Cells were collected by centrifugation of the culture at 2583×g for 20 minutes at 4° C. In the phenol extraction, volume of phenol/buffer (20 mM Tris.-HCl, 2 mM MgCl2, 20 mM NaCl, pH 8.0) to each tube with a cell pellet is calculated as OD*667 μL. […] By doing this, the cell concentration in each sample was identical so that the changes in CPS and LPS quantity of each cell on average could be compared quantitatively.
Detailed measurement of the inhibitory effect of am8γCD towards K30 polysaccharide translocation was then performed. […] The gel was stained to generate fluorescence signals that correspond to the sugar quantity. […]
The fluorescent intensities of the gels were measured by using the Bio-Rad Universal Hood II. […] The fluorescence intensity of each lane was processed with the Plot Lane function after illumination of the gel with UV light at 302 nm and fluorescent data collection emissions going through an Amber Filter (548-630 nm).

## NC[C@H]1O[C@@H]2O[C@H]3[C@H](O)[C@@H](O)[C@@H](O[C@H]4[C@H](O)[C@@H](O)[C@@H](O[C@H]5[C@H](O)[C@@H](O)[C@@H](O[C@H]6[C@H](O)[C@@H](O)[C@@H](O[C@H]7[C@H](O)[C@@H](O)[C@@H](O[C@H]8[C@H](O)[C@@H](O)[C@@H](O[C@H]9[C@H](O)[C@@H](O)[C@@H](O[C@H]1[C@H](O)[C@H]2O)O[C@@H]9CN)O[C@@H]8CN)O[C@@H]7CN)O[C@@H]6CN)O[C@@H]5CN)O[C@@H]4CN)O[C@@H]3CN [No. 12, Octacis (6-amino-6-deoxy)-γ-cyclodextrin]
E. coli strain E69; 1 μM, antiserum incubation 2 h
  LPS exposure by median fluorescence intensity: 5.1%
  LPS exposure by percentage of labelled cells: 44%
E. coli strain E69; 50 μM, antiserum incubation 1 h
  LPS exposure by percentage of labelled cells: 36%
E. coli strain E69; 50 μM, antiserum incubation 1 h, relative to CWG281 positive control
  LPS exposure by median fluorescence intensity: 4.9%
E. coli strain E69; 1 mM, antiserum incubation 1 h
  LPS exposure by percentage of labelled cells: 96%
E. coli strain E69; 1 mM, antiserum incubation 1 h, relative to CWG281 positive control
  LPS exposure by median fluorescence intensity: 20%
Mutant Wza Y110G; 300 mM KCl, 5 mM HEPES, pH 7.5, +10 mV
  Kd: 0.0056 ± 0.0024 µM
Mutant Wza Y110G; 2M KCl buffer pH 7.5, +3 mV
  Kd: 4.7 ± 4.6 µM
Mutant Wza Y110G/Y373C
  Kd: 570 ± 520 µM
[1]; 1 mM, E. coli strain E69, staining assay
  Inhibition of K30 polysaccharide transport compared with am7βCD and am6αCD: much stronger
[1]; E. coli strain E69, increasing am8γCD
  LPS fluorescent intensity at saturation: around 2 times that of the control
[1]; Escherichia coli, read-out: IC50 from concentration dependence of the CPS band intensity
  IC50: 51.2 ± 1 µM
